Where a SMILES comes first, the peptide text is derived from it.
Columns and labels:
Her3-Fc [1] = molecular target: T1, Her3-Fc (Homo sapiens, UniProt P21860); experiment: SPR binding to Her3-Fc; details: Biacore S200, 25°C; Her3-Fc Avi-tag on chip SA; HBS-EP+ plus 1% DMSO; MCK
T1 construct: purchased R&D 348-RB
Experimental: (§1) All binding experiments were performed using a Biacore S200 instrument (GE Healthcare) at 25°C at a flow rate of 50 μL/min. The kinetics and affinity measurements were carried out using either single-cycle or multi-cycle kinetics (SCK or MCK), solvent corrected and referenced by subtracting the signal to the blank flow cell. Binding affinity and kinetic parameters (association and dissociation rate constants, and dissociation equilibrium constant) were calculated with the Biacore S200 Evaluation Software (version 1.1.1, Cytiva) using either a 1:1 binding model or a steady-state equilibrium model (according to the manufacturer’s instructions).
Her3-Fc Avi-tag (R&D) was captured at about 1200 and 3000 RU on Series S Sensor Chip SA (Cytiva). The SPR measurements were done in HBS-EP+ buffer (0.01 M HEPES pH 7.4, 0.15 M NaCl, 3 mM EDTA, 0.05% v/v Surfactant P20) plus 1% v/v DMSO.

Her3-Fc [2] = molecular target: T1, Her3-Fc; experiment: Spot phage ELISA, Her3-Fc; assay type: binding
HtrA1 FL [3] = molecular target: T2, HtrA1 FL (Homo sapiens, UniProt Q92743); assay type: binding; details: Biacore S200, 25°C; biotinylated HtrA1 FL on chip SA; 10 mM HEPES (8.0), 200mM NaCl, 0.25% CHAPS, 5% DMSO; steady state fitting; n/d = no binding; read-out: Kd(μM) SPR
T2 construct: HtrA1 (Q23-P480, 5654, Tni Baculovirus); made in house; host or cells: Trichoplusia ni (Tni) cells, baculovirus
T2 sequence (Q92743 23-480): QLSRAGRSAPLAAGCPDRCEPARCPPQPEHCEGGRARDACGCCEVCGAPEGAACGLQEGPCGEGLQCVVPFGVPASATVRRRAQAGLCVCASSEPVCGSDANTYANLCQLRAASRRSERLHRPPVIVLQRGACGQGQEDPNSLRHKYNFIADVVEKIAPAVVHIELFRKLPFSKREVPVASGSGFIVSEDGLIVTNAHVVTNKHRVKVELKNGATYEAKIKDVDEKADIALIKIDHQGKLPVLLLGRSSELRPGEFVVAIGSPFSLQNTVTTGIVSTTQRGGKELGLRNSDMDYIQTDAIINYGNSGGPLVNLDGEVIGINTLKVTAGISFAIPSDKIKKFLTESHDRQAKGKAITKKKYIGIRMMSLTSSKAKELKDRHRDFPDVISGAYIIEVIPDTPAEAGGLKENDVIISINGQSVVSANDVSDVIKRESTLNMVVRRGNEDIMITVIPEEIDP

HtrA1 = assay type: binding, human; details: ratio of signal for target protein over BSA background
HtrA1 FL [4] = molecular target: T2, HtrA1 FL; experiment: HtrA1 enzyme assay with substrate H2-OPT; assay type: biochemical; details: 20 μM DCP, 1 nM HtrA1, 5 μM H2-OPT, 15 min pre-incubation, 37°C, pH 8.0, 0.1% DMSO; average of three independent experiments (Fig 3B)
Experimental: Human full-length HtrA1 (HtrA1 FL) was expressed in Trichoplusia ni cells and purified as described. Enzyme assays with the fluorescence-quenched synthetic substrate Mca-[…](Dnp)KK (H2-OPT) were carried out essentially as described (Eigenbrot 2012). DCP stock solutions in DMSO were diluted in 50 mM Tris-HCl, pH 8.0, 200 mM NaCl, 0.25% CHAPS (assay buffer) and incubated with HtrA1 in 96-well black optical bottom plates for 15 min at 37°C. A 10 mM stock solution of H2-OPT in DMSO was diluted with water, prewarmed at 37°C and then added to the DCP-enzyme mixtures. The final concentrations in the reaction mixtures were: 1 nM HtrA1, 20 μM DCP, 5 μM H2-OPT, 0.1% DMSO. Substrate cleavage was measured at 37°C on a SPECTRAmax M5 microplate reader (Molecular Devices) and the initial rates of cleavage determined. […] The enzyme activities were expressed as percent of control values (without DCP). The determined values represent the average ± S.D. of three independent experiments.

[5] = molecular target: T3, Notch2Long (Notch2 EGF6-EGF12) (Homo sapiens, UniProt Q04721); experiment: SPR binding of synthetic DCPs to Notch2Long; details: Biacore S200, 25°C, 50 μL/min; synthetic in vitro folded peptide, 3-fold dilution from 100 μM; biotinylated N2L on chip SA; steady state fitting; at least three independent experiments; n/d = no binding
T3 construct: Biotinylated N2L protein (D219–E418, made in-house); His tag (cleaved yes); made in house; host or cells: CHO
T3 sequence (Q04721 219-418): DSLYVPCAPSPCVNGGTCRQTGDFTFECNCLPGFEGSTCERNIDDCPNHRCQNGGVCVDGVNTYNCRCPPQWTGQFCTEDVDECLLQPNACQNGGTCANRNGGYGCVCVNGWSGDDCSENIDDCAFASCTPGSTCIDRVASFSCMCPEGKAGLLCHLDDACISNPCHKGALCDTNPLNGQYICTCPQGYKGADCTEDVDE
Experimental: as §1
Biotinylated N2L protein (D219–E418, made in-house) and NRR protein (A1423–Q1677, made in-house) were captured at around 500, 1000 and 1500 RU on Sensor Chip SA (Cytiva).

Notch 2 = experiment: Phage competition ELISA on Notch 2; assay type: binding, human; details: N2L_EET03 peptide against N2L_EET31 displaying phage (Fig 5C)
Excerpt: Subsequently, we selected another primary hit, N2L.EET31, for affinity maturation as outlined in Fig 5A with improved outcome. Despite displaying a weak ELISA signal, N2L.EET31 was identified as the most abundant sequence by NGS analysis (56.6% in round 4). […] Due to these observations, N2L.EET31 was selected as another candidate for affinity maturation. An NNK-walking experiment (described in the methods section) provided valuable information on the functional importance of individual loop residues. […] These residues are either crucial for binding or play a critical role in overall peptide folding. […] Based on this information, we designed hard randomization libraries for Loop 2 and Loop 3_4 as part of the second generation of affinity maturation.

Notch2Long = experiment: Spot phage ELISA, Notch2Long; assay type: binding, human; details: Table 3, affinity maturation clones

T1 sequence (P21860 20-643 limits assumed): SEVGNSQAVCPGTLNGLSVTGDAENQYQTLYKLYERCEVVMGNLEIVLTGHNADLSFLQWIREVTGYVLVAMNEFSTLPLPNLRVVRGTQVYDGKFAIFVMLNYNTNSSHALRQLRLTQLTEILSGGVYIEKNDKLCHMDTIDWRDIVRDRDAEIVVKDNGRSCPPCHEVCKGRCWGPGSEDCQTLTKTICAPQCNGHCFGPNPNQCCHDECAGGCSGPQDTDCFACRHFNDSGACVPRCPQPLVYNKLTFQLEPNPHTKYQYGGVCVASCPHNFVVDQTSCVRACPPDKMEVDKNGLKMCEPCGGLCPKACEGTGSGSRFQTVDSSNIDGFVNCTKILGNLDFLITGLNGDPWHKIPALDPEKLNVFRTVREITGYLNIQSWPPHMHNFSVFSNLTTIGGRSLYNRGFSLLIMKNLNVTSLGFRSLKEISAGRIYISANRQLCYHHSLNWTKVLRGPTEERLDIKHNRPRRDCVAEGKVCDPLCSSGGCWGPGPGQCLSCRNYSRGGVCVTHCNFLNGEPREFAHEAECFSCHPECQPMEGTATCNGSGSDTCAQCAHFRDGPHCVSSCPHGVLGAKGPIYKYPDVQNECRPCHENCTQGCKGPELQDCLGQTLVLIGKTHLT

Compound: CC(C)C[C@@H]1NC(=O)[C@H](CCCNC(=N)N)NC(=O)[C@H](CCC(N)=O)NC(=O)[C@@H]2CSSC[C@@H](C(=O)N[C@@H](CCC(=O)O)C(=O)N[C@@H](CCC(=O)O)C(=O)O)NC(=O)[C@H](CCCCN)NC(=O)[C@@H]3CSSC[C@H](NC(=O)[C@H](CCC(=O)O)NC(=O)[C@H](CCCCN)NC(=O)[C@H](CO)NC(=O)[C@H]([C@@H](C)O)NC(=O)[C@H]([C@@H](C)O)NC(=O)[C@@H](NC(=O)[C@H](CO)NC(=O)[C@@H](N)C(C)C)CSSC[C@H](NC(=O)[C@H](CCC(N)=O)NC(=O)[C@H](CCC(=O)O)NC(=O)CNC(=O)[C@H](Cc4c[nH]c5ccccc45)NC(=O)[C@H](CO)NC(=O)[C@H]([C@@H](C)O)NC(=O)[C@H](CC(N)=O)NC(=O)[C@H](Cc4c[nH]cn4)NC1=O)C(=O)N[C@@H](C(C)C)C(=O)N[C@@H]([C@@H](C)O)C(=O)N[C@@H](CCCCN)C(=O)N[C@@H](Cc1ccccc1)C(=O)N3)C(=O)N[C@@H](Cc1c[nH]c3ccccc13)C(=O)N[C@@H](CO)C(=O)N[C@@H](C(C)C)C(=O)N2 [Her3-Fc_ChTx1]
- Kd (Her3-Fc [1]): > 10 µM
- S/N (Her3-Fc [2]; ratio of signal for target protein over BSA background): 22.6
- ELISA (Her3-Fc [2]; spot phage ELISA signal, DCP displayed on M13 p8, L1 2): 1.74

Compound: CC[C@H](C)[C@@H]1NC(=O)[C@H](CCC(N)=O)NC(=O)[C@H](CCCNC(=N)N)NC(=O)[C@H](C(C)C)NC(=O)[C@@H]2CSSC[C@H](NC(=O)[C@H](CC(=O)O)NC(=O)[C@H](Cc3ccccc3)NC(=O)[C@H](C)N)C(=O)N[C@@H](CC(C)C)C(=O)NCC(=O)N[C@@H](CCC(N)=O)C(=O)N[C@H]3CSSC[C@H](NC(=O)[C@H](Cc4ccc(O)cc4)NC(=O)[C@H](Cc4c[nH]cn4)NC(=O)[C@H](CO)NC(=O)[C@H](CC(C)C)NC(=O)[C@H](CC(N)=O)NC(=O)[C@H]([C@@H](C)CC)NC(=O)[C@H](C(C)C)NC(=O)[C@H](CCCNC(=N)N)NC(=O)[C@H](Cc4c[nH]c5ccccc45)NC(=O)[C@H](C(C)C)NC1=O)C(=O)N[C@@H](CC(N)=O)C(=O)N[C@@H](CO)C(=O)N[C@@H](CO)C(=O)N[C@H](C(=O)N[C@H](C(=O)N[C@@H](CCCNC(=N)N)C(=O)O)[C@@H](C)O)CSSC[C@H](NC(=O)[C@H](CCCNC(=N)N)NC(=O)CNC3=O)C(=O)N[C@@H](CC(=O)O)C(=O)N[C@@H](Cc1ccccc1)C(=O)N[C@@H](Cc1c[nH]cn1)C(=O)N[C@@H](CCCCN)C(=O)N[C@@H](CC(C)C)C(=O)N[C@@H](CCC(N)=O)C(=O)N2 [HtrA1_AVR62] (HELM PEPTIDE1{A.F.D.C.L.G.Q.C.G.R.C.D.F.H.K.L.Q.C.V.R.Q.I.V.W.R.V.I.N.L.S.H.Y.C.N.S.S.C.T.R}$PEPTIDE1,PEPTIDE1,4:R3-18:R3|PEPTIDE1,PEPTIDE1,8:R3-33:R3|PEPTIDE1,PEPTIDE1,11:R3-37:R3$$$V2.0; N-terminus and C-terminus assumed)
- Kd (HtrA1 FL [3]): > 15 µM
- S/N (HtrA1): 19.5
- inhibition of HtrA1 activity (HtrA1 FL [4]): more than 75%

Compound: CC[C@H](C)[C@@H]1NC(=O)[C@@H](NC(=O)CN)CSSC[C@@H]2NC(=O)CNC(=O)[C@H](C)NC(=O)[C@H](CC(C)C)NC(=O)[C@@H]3CSSC[C@@H](C(=O)NCC(=O)O)NC(=O)[C@H](CCC(N)=O)NC(=O)[C@H]([C@@H](C)CC)NC(=O)[C@H](Cc4c[nH]c5ccccc45)NC(=O)[C@H](C(C)C)NC(=O)[C@H](CCC(=O)O)NC(=O)[C@H](CSSC[C@H](NC(=O)[C@H](Cc4c[nH]c5ccccc45)NC(=O)[C@H](CC(C)C)NC(=O)[C@H](Cc4c[nH]cn4)NC(=O)[C@H](CO)NC(=O)[C@H](CCCCN)NC1=O)C(=O)N[C@@H](CCCCN)C(=O)N[C@@H](CCC(N)=O)C(=O)N[C@@H](CC(=O)O)C(=O)N[C@@H](CO)C(=O)N[C@@H](CC(=O)O)C(=O)N3)NC(=O)[C@H](C(C)C)NC2=O [N2L.EET31] (HELM PEPTIDE1{G.C.I.K.S.H.L.W.C.K.Q.D.S.D.C.L.A.G.C.V.C.E.V.W.I.Q.C.G}$PEPTIDE1,PEPTIDE1,2:R3-19:R3|PEPTIDE1,PEPTIDE1,9:R3-21:R3|PEPTIDE1,PEPTIDE1,15:R3-27:R3$$$V2.0; N-terminus and C-terminus assumed)
- Kd [5]: > 100 µM
- competition in phage competition ELISA (Notch 2): exhibited competition with N2L.EET03
- s/n ratio (Notch2Long; signal over BSA background): 0.4
- ELISA (Notch2Long; spot phage ELISA signal, display (p8 or p3) not given per clone): 0.1

— publication PMC10977697 (PLOS ONE, 2024)
